Test results published in the supplement of paper PMC10307832.

Key:
Test in all cases: relative viability (nuclei count vs DMSO), 5 days (fraction); higher = more cells survive
[1] = compound: CC1=CC(=CC=C1)NC2=NC(=CS2)C3=CC=NC=C3 + CC(C)C[C@H](NC(=O)[C@H](Cc1ccccc1)NC(=O)c1cnccn1)B(O)O [Bortezomib] (partner 0.002 µM)
Outline: (§1)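 Medians of duplicate plates are given as relative viability. That measure is the nuclei count in treated wells divided by the count in vehicle wells. Counts were taken on 4× images of lung cancer cell lines in 1536-well plates, 5 days after pin-tool dosing the day after seeding with one drug alone or a fixed anchor-drug dose plus five library-drug doses (not always all listed) in √10 steps.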

[2] = compound: CC1=CC(=CC=C1)NC2=NC(=CS2)C3=CC=NC=C3 + O=C(CCCCCCC(=O)Nc1ccccc1)NO [Vorinostat] (partner 1 µM)
Outline: as §1

Masitinib + Phenformin = compound: Cc1ccc(NC(=O)c2ccc(CN3CCN(C)CC3)cc2)cc1Nc1nc(-c2cccnc2)cs1 [Masitinib] + N=C(N)NC(=N)NCCc1ccccc1 [Phenformin] (partner 250 µM)
Outline: as §1

Masitinib + AZD7762 = compound: Cc1ccc(NC(=O)c2ccc(CN3CCN(C)CC3)cc2)cc1Nc1nc(-c2cccnc2)cs1 [Masitinib] + NC(=O)Nc1cc(-c2cccc(F)c2)sc1C(=O)N[C@H]1CCCNC1 [AZD7762] (partner 0.2 µM)
Outline: as §1

| Cell Line | relative viability ([1]; first compound 0.08 µM) | relative viability ([1]; first compound 0.253 µM) | relative viability ([1]; first compound 0.8 µM) | relative viability ([1]; first compound 2.53 µM) | relative viability ([1]; first compound 8 µM) | relative viability ([2]; first compound 0.08 µM) | relative viability ([2]; first compound 0.253 µM) | relative viability ([2]; first compound 0.8 µM) | relative viability ([2]; first compound 2.53 µM) | relative viability ([2]; first compound 8 µM) | relative viability (Masitinib + Phenformin; first compound 0.01 µM) | relative viability (Masitinib + Phenformin; first compound 0.03162 µM) | relative viability (Masitinib + Phenformin; first compound 0.1 µM) | relative viability (Masitinib + Phenformin; first compound 1 µM) | relative viability (Masitinib + AZD7762; first compound 0.01 µM) | relative viability (Masitinib + AZD7762; first compound 0.03162 µM) | relative viability (Masitinib + AZD7762; first compound 0.1 µM) | relative viability (Masitinib + AZD7762; first compound 0.3162 µM) | relative viability (Masitinib + AZD7762; first compound 1 µM) | relative viability (Masitinib + Phenformin; first compound 0.3162 µM) |
| --- | --- | --- | --- | --- | --- | --- | --- | --- | --- | --- | --- | --- | --- | --- | --- | --- | --- | --- | --- | --- |
| NCI-H1975 | 0.361 | 0.352 | 0.374 | 0.267 | 0.171 | 0.656 | 0.694 | 0.593 | 0.707 | 0.554 | 0.405 | 0.402 | 0.422 | 0.408 | 0.707 | 0.665 | 0.884 | 0.434 | 0.546 | – |
| NCI-H647 | 0.826 | 0.92 | 0.965 | 0.836 | 0.621 | 0.576 | 0.531 | 0.591 | 0.498 | 0.454 | 0.549 | 0.521 | 0.526 | 0.584 | 0.587 | 0.477 | 0.535 | 0.502 | 0.469 | 0.57 |
| NCI-H441 | 0.423 | 0.361 | 0.427 | 0.53 | 0.136 | 0.705 | 0.955 | 0.842 | 0.746 | 0.76 | 0.654 | 1.05 | 0.837 | 0.843 | 1.23 | 1.2 | 1.28 | 1.35 | 1.28 | 0.94 |
| NCI-H1355 | 1.08 | 1.02 | 0.991 | 0.465 | 0.716 | 0.521 | 0.458 | 0.429 | 0.403 | 0.469 | 0.462 | 0.384 | 0.478 | 0.406 | 0.726 | 0.747 | 0.791 | 0.481 | 0.517 | 0.379 |
| NCI-H23 | 1.17 | 1.08 | 1.29 | 0.866 | 0.739 | 0.519 | 0.613 | 0.596 | 0.526 | 0.612 | 0.846 | 0.734 | 0.881 | 0.748 | 0.21 | 0.273 | 0.277 | 0.237 | 0.198 | 0.781 |
| NCI-H650 | 0.76 | 0.72 | 1.09 | – | 0.857 | 0.414 | 0.429 | 0.395 | 0.624 | 0.599 | 0.508 | 0.428 | 0.514 | 0.425 | 1.07 | 1.02 | 1.23 | 1.15 | 0.946 | 0.303 |
| NCI-H2087 | 0.708 | 0.825 | 0.844 | 0.666 | 0.3 | 0.615 | 0.725 | 0.762 | 0.574 | 0.708 | 0.347 | 0.393 | 0.534 | 0.393 | 1.22 | 1.35 | 1.2 | 1.5 | 1.3 | 0.5 |
| NCI-H838 | 0.658 | 0.742 | 0.934 | 0.861 | 0.651 | 0.64 | 0.599 | 0.628 | 0.582 | 0.524 | 0.45 | 0.498 | 0.521 | 0.569 | 0.818 | 0.883 | 0.913 | 0.845 | 0.892 | 0.508 |
| NCI-H460 | 1.03 | 1.13 | 0.945 | 0.902 | 0.843 | 0.54 | 0.536 | 0.562 | 0.462 | 0.395 | 0.482 | 0.586 | 0.508 | 0.503 | 0.62 | 0.605 | 0.655 | 0.357 | 0.525 | 0.457 |
| LOU-NH91 | 0.446 | 0.457 | 0.447 | 0.461 | 0.398 | 0.766 | 0.776 | 0.887 | 0.861 | 0.436 | 0.656 | 0.606 | 0.683 | 0.605 | 0.748 | 0.628 | 0.799 | 0.642 | 0.548 | 0.54 |
| NCI-H322M | 1.18 | 1.29 | 1.14 | 1.22 | 1.03 | 0.788 | 0.759 | 0.916 | 0.814 | 0.95 | 0.789 | 0.799 | 0.741 | 0.715 | 0.435 | 0.533 | 0.423 | 0.515 | 0.534 | 0.75 |
| NCI-H727 | 0.547 | 0.774 | 0.834 | 0.549 | 0.446 | 0.967 | – | 1.1 | – | 1.24 | 0.641 | 0.636 | 0.5 | 0.44 | 0.592 | 0.626 | 0.566 | 0.495 | 0.606 | 0.616 |
| NCI-H1755 | 0.937 | 0.886 | 0.832 | 0.819 | 0.572 | 0.621 | 0.761 | 0.726 | 0.611 | 0.605 | – | 0.51 | 0.545 | 0.581 | 0.404 | 0.452 | 0.468 | 0.45 | 0.479 | 0.597 |
| H3255 | 0.664 | 0.624 | 0.886 | 0.586 | 0.604 | 0.758 | 0.723 | 0.65 | 0.666 | 0.717 | 0.388 | 0.277 | 0.374 | 0.407 | 0.581 | 0.948 | 0.764 | 0.705 | 0.885 | 0.315 |
| 201T | 1.05 | 1.06 | 1.08 | 0.888 | 0.919 | 0.933 | 0.937 | 0.92 | 0.842 | 0.76 | 0.362 | 0.409 | 0.373 | 0.44 | 0.516 | 0.7 | 0.528 | 0.64 | 0.573 | 0.471 |
| HOP-62 | 0.673 | 0.784 | 1.16 | 0.588 | 0.496 | 0.531 | 0.605 | 0.591 | 0.584 | 0.595 | 0.55 | 0.744 | 0.668 | 0.691 | 0.458 | 0.631 | 0.837 | 0.679 | 0.655 | 0.827 |
| CAL-12T | 0.757 | – | 1.01 | 0.719 | 0.954 | 0.565 | 0.74 | 0.85 | 0.609 | 0.716 | 0.525 | 0.637 | 0.594 | 0.509 | 0.586 | 0.639 | 0.606 | 0.605 | 0.498 | 0.553 |
